Converted amounts (≈) assume the structure as drawn. “And” between values parts separate entries of the source, which are not always exact repeats. Equal values may be shown once. “Also recorded” adds a separate entry of the source.
Columns and labels:
ependymoblastoma = test: Intracerebral (IC) ependymoblastoma (EM) brain tumor test; type: in vivo, murine; details: Table X, IC ependymoblastoma
[1] = tested on: P388 lymphocytic leukemia; test: Intraperitoneal (IP) lymphocytic leukemia P388 transplanted mouse tumor test; type: in vivo, murine
Source text: (§1) ^b Ip tumor implantation, ip QD1-9 treatment schedule.
(§2) The L1210, P388 and B16 test systems described in Table II utilize intraperitoneal (IP) tumor implantation and IP drug treatment while the Lewis lung system employs subcutaneous tumor implantation and IP treatment.
(§3) Aqueous saline solution (0.9%) was used as the drug vehicle. Normally, five doses were employed per experiment with the top dose chosen to produce toxicity. The lower doses were 50% of each preceeding dose.
(§4) Consistent with NCI antitumor test protocols, intraperitoneal (IP) administration of the drug was employed with all five tumor systems investigated. Tumor implantation was IP in the systems designated IP leukemia L1210 and P388 as well as B16 melanoma.

[2] = Octanol/H2O partition coefficient (log P); type: physicochemical; details: octanol/water; Table VII; octanol/H2O
Source text: ^(b) Octanol/H2 O values determined by C. Hansch and M. Yamakawa

[3] = Room temperature water solubility; type: physicochemical; details: water; Table VII; room temperature, approximate; read-out: Approx. H2O Sol.
Procedure, shortened: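 Water added incrementally by pipet, with shaking, to a weighed amount of compound at room temperature until dissolved; values are approximate.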

lymphoid leukemia L1210 [4] = test: Intraperitoneal (IP) lymphoid leukemia L1210 transplanted mouse tumor test; type: in vivo, murine; details: for OD (optimum dose) / ILS (percentage increase in life span) / animals alive per 6 test animals on day of termination: Table VIII; for cures: survivors on day 30, L1210
Source text: ^(a) Day 1-9 treatment schedule (9 injections)
^(b) Day 1,5,9 treatment schedule (3 injections)
^(c) Day 1 only treatment schedule (1 injection)
^(f) Percentage increase in life span of treated animals [(treated
survival .div. control survival) × 100%] - 100%

[5] = tested on: IP ascites tumor systems (leukemia L1210 and P388); test: IP ascites tumor systems (leukemia L1210 and P388); type: in vivo, murine
Source text: The criterion for minimum activity, %ILS, is defined here as follows: Intraperitoneal and intracerebral leukemia L1210 and intraperitoneal leukemia P388, 25%; intraperitoneal B16 melanoma and intracerebral ependymoblastoma, 40%. Consistent with NCI antitumor test protocols, intraperitoneal (IP) administration of the drug was employed with all five tumor systems investigated. Tumor implantation was IP in the systems designated IP leukemia L1210 and P388 as well as B16 melanoma. Intracerebral (IC) tumor implantation was utilized in the IC L1210 and ependymoblastoma tumor systems.

lymphoid leukemia L1210 [6] = test: Intracerebral (IC) lymphoid leukemia L1210 test; type: in vivo, murine
B16 melanocarcinoma = test: Intraperitoneal B16 melanocarcinoma transplanted mouse tumor test; type: in vivo, murine
Source text: as §1, §2, §3, §4

[7] = Table XI, per 6 test animals, day 30

Question: For O=C1C(NCCO)=C(N2CC2)C(=O)C(NCCO)=C1N1CC1 [Compound 38], which “OD (optimum dose)” value (ependymoblastoma; QD1-5) is on record?
Answer: Its value is 1.5 mg/kg/injection.

Question: And the “ILS (percentage increase in life span)” value (ependymoblastoma; QD1-5, at OD)?
Answer: Its value is 83% and 70%.

Question: What about the “antitumor activity” value ([1]; IP P388) of the same molecule?
Answer: Its value is “very active”.

Question: And the “cures” value ([1]; P388, 30 day survivors, QD1-9)?
Answer: Its value is “multiple cures”.

Question: What about the “OD (optimum dose)” value ([1]; Table IX, IP P388, QD1-9) of the same molecule?
Answer: Its value is 0.4 mg/kg/injection.

Question: What about the “ILS (percentage increase in life span)” value ([1]; Table IX, IP P388, QD1-9, at OD) of the same molecule?
Answer: The value was 175% and 160%.

Question: What about the “animals alive per 6 test animals on day of termination” value (from here on “animals alive per 6 test animals”) ([1]; Table IX, IP P388, QD1-9, at OD, day 30) of the same molecule?
Answer: The value was 3 and 2.

Question: What about the “survivors (number in parentheses) P388” value [1, 7] of the same molecule?
Answer: Its value is 3.

Question: What about the logP [2] of the same molecule?
Answer: The logP was -1.48.

Question: What about the solubility [3] of the same molecule?
Answer: Its solubility is 2000 µg/mL (≈ 6.49 mM).

Question: What about the “maximum ILS” value (lymphoid leukemia L1210 [4]; IP L1210) of the same molecule?
Answer: Its value is > 200%.

Question: What about the “antitumor activity” value (lymphoid leukemia L1210 [4]; IP L1210, tetraaminobenzoquinone series (Table VIII)) of the same molecule?
Answer: Its value is “Excellent activity”.

Question: And the “OD (optimum dose)” value (lymphoid leukemia L1210 [4]; IP L1210, Day 1 only (1 injection))?
Answer: Its value is 1.5 mg/kg/injection.

Question: What about the “ILS (percentage increase in life span)” value (lymphoid leukemia L1210 [4]; IP L1210, Day 1 only, at OD) of the same molecule?
Answer: The value was 175% and 119%.

Question: And the “animals alive per 6 test animals” value (lymphoid leukemia L1210 [4]; IP L1210, Day 1 only, at OD, day 30)?
Answer: The value was 5 and 3.

Question: What about the “OD (optimum dose)” value (lymphoid leukemia L1210 [4]; IP L1210, Q4D(1,5,9) (3 injections)) of the same molecule?
Answer: The value was 0.7 mg/kg/injection.

Question: And the “ILS (percentage increase in life span)” value (lymphoid leukemia L1210 [4]; IP L1210, Q4D(1,5,9), at OD)?
Answer: The value was 131% and 70%.

Question: What about the “OD (optimum dose)” value (lymphoid leukemia L1210 [4]; IP L1210, QD1-9 (9 injections)) of the same molecule?
Answer: Its value is 0.7 mg/kg/injection.

Question: What about the “ILS (percentage increase in life span)” value (lymphoid leukemia L1210 [4]; IP L1210, QD1-9, at OD) of the same molecule?
Answer: Its value is 205% and 134%.

Question: And the “animals alive per 6 test animals” value (lymphoid leukemia L1210 [4]; IP L1210, QD1-9, at OD, day 30)?
Answer: Its value is 2 and 3.

Question: What about the “ILS (%) IP L1210” value (lymphoid leukemia L1210 [4]; Table XI, outstanding activity) of the same molecule?
Answer: The value was 205%.

Question: And the “survivors (number in parentheses) IP L1210” value (lymphoid leukemia L1210 [4]; [7])?
Answer: Its value is 2.

Question: What about the “cures” value (lymphoid leukemia L1210 [4]) of the same molecule?
Answer: Its value is “produced cures”.

Question: What about the “cures” value (lymphoid leukemia L1210 [4]; listed as hydroxyethylamino) of the same molecule?
Answer: The value was “Multiple cures”.

Question: What about the “antitumor activity” value [5] of the same molecule?
Answer: Its value is “most active; also recorded: superior”.

Question: What about the “antitumor activity” value (lymphoid leukemia L1210 [6]; IC L1210) of the same molecule?
Answer: The value was “marginal”.

Question: What about the “OD (optimum dose)” value (lymphoid leukemia L1210 [6]; Table X, IC L1210, QD1-9) of the same molecule?
Answer: The value was 0.75 mg/kg/injection.

Question: And the “ILS (percentage increase in life span)” value (lymphoid leukemia L1210 [6]; Table X, IC L1210, QD1-9, at OD)?
Answer: Its value is 57% and 48%.

Question: And the “ILS (%) IC L1210” value (lymphoid leukemia L1210 [6]; Table XI, outstanding activity)?
Answer: The value was 57%.

Question: What about the “antitumor activity” value (B16 melanocarcinoma; B16 melanoma) of the same molecule?
Answer: Its value is “active”.

Question: And the “OD (optimum dose)” value (B16 melanocarcinoma; Table IX, B16, QD1-9)?
Answer: The value was 0.4 mg/kg/injection.

Question: What about the “ILS (percentage increase in life span)” value (B16 melanocarcinoma; Table IX, B16, QD1-9, at OD) of the same molecule?
Answer: Its value is 61% and 51%.

Question: What about the “ILS (%) B16” value (B16 melanocarcinoma; Table XI, outstanding activity) of the same molecule?
Answer: Its value is 61%.
